Results reported in patent publication US6380198B1 (Laboratoire Medidom S.A., priority 1997, dated 2002).
Values joined by “and” are separate entries in the source; they are usually repeats but may differ in a detail not shown here. Identical values can stand only once.

Assays:
[1] = biological target: T1, σ-1 receptors (Oryctolagus cuniculus, UniProt G1SD54); experiment: [3H](+)-pentazocine receptor binding and competitive binding on irido-ciliary body membranes; set-up: species or system rabbit (New Zealand albino); details: 300 μg membrane protein, 37° C., 150 minutes
T1 construct: cell membranes obtained from the irido-ciliary body complex; from tissue; host or cells: rabbit irido-ciliary body, P2 membrane fraction
Description: In order to identify the presence of a receptor sites in the eye the technique of “receptor binding” has been exploited. The latter has been carried out on cell membranes obtained from the irido-ciliary body complex. The irido-ciliary body complex had been explanted, after sacrifice, from male albino rabbits of the New Zealand strain. The tissue was homogenised in buffer and a fraction rich in cell membrane proteins was isolated, obtained by centrifugation. […] Aliquots of the said fraction of the homogenate containing 300 μg of total proteins were incubated with scalar amounts of [^3H](+)-pentazocine (which is used, for experimental purposes only, as a a ligand). The reaction was carried out at 37° C. for 150 minutes and then, after filtering, the radioactivity left on the filters was measured by liquid scintillation.

[2] = biological target: T1, σ-1 receptors; experiment: Inhibition of 3H(+)-N-allyl-nor-methazocine binding to irido-ciliary body membranes; set-up: species or system rabbit (New Zealand albino); details: rabbit irido-ciliary body P2 membranes, 300 μg protein, 37° C., 150 minutes, duplicate
Procedure: The receptor binding technique was carried out on cell membranes obtained from the irido-ciliary body complex explanted, after sacrifice, from male albino rabbits of the New Zealand strain (Charles River Italiana, of Calco (CO)). The tissue was homogenised in buffer and the P2, fraction, rich in cell membrane proteins, was isolated. […] The La total protein concentration was determined with the Lowry method.
The non specific binding was evaluated in presence of haloperidol.
All tests were carried out in duplicate. The reaction was maintained at 37° C. for 150 minutes, followed by filtration on WhatmannGF/B filters. The radioactivity left on the filters was measured by liquid scintillation spectrometry.

[3] = test system: intraocular pressure of rabbits showing normal baseline intraocular pressure; experiment: Intraocular pressure in rabbits with normal intraocular pressure after topical instillation; type: in vivo, rabbit (Vienna Blue, pigmented); details: Table 2, 50 μl eye-drops: 0.050% flunarizine, 0.5% timolol, or flunarizine/beta-blocker combinations
Procedure: The effects of the agent of the invention on the intraocular pressure of rabbits showing normal baseline intraocular pressure were evaluated in comparison with the action of a placebo, and with that of various other calcium channel blocking agents. Female pigmented rabbits of the Vienna Blue strain were used (supplied by Charles River Italiana, of Calco (CO)). The age of the animals at the time of starting the experimentation was 9 weeks, and their weight was 2.0-2.5 kg.
The choice of a species with pigmented iris is due to the fact that the latter represents a reliable model for the evaluation of possible modifications of the intraocular pressure caused by the products under test. The strain chosen is genetically defined, so as to limit to a minimum the variability of the biological characteristics between one animal and the other.
The animals were kept in rooms maintained under constant and controlled conditions of temperature and humidity, illuminated for 12 hours a day with artificial light and with continuous renovation of the air. The feed consisted of a standard diet having a constant and known composition, and both feed and water were available ad libitum during the whole period of the test. The rabbits were stabled for 21 days before starting the test, so as to allow a sufficient acclimatation and to suitably evaluate the health conditions of the rabbits. Each experimental group consisted of 4 animals, which were allotted to the treatment groups in a randomised way.
Each different group of animals received, by instillation in the right conjunctival fornix, 50 μl of the following products:
The weight concentrations of the various agents under test are chosen so as to correspond to the same molar concentration.
The pressure in the treated eye was measured by flattening tonometer (TonopenXL®, Mentor), 15 minutes before the instillation of the eyerops (time 0) and then 30, 60, 90, 120, 180 and 240 minutes after. As a local anaesthetic, 5 minutes before carrying out each measurement 25 μl of a commercial ophthalmic solution containing 0.4% oxybuprocaine hydrochloride (Novesine®, Sandoz) was instilled. To carry out the measurement the rabbits were placed in a suitably designed cage, that prevents any sudden movement of the animal under test.
For each animal and at each of the times listed above the average of three subsequent measurements was calculated and recorded, each one said measurements being made after 1 minute from the previous one. The intraocular pressure values at the various times were compared with the values obtained before the treatment, by means of the Student's “t” test. The comparisons between different groups were made by processing the data by the variance analysis (ANOVA) and, where possible, by the Student's “t” test for the comparison of two different experimental groups. Values of p<0.05 were considered to be statistically significant.

[4] = test system: intraocular pressure of rabbits with ocular hypertension; experiment: Intraocular pressure in rabbits with ocular hypertension induced by α-chymotrypsin; type: in vivo, rabbit (Vienna Blue, pigmented); details: Table 5, hypertensive rabbits, 50 μl eye-drops: 0.050% flunarizine, 0.5% timolol, or flunarizine/beta-blocker combinations
Procedure: Rabbits of the same type as those described in the previous section were used for the following tests.
In the rabbit, the injection of this enzyme in the posterior chamber causes, after one month from the administration, an effect of ocular hypertension.
At the end of the quarantine period the rabbits were anaesthetised by intramuscular administration of ketamine hydrochloride and xylazine hydrochloride (RBI). The right eye was gently pushed outwardly after instilling 25 μl of Novesine® eye-drops, containing oxybuprocaine as an anaesthetic; then, a sterile solution of σ-chymotrypsin (SIGMA, Milan; 150 units in 100 μl of physiologic sterile solution) was injected in the posterior chamber of the right eye by means of a 30G sterile needle. After the administration of the enzyme, the eye was thoroughly washed with physiologic sterile solution in order to remove any traces of α-chymotrypsin which could damage the ocular tissues. Then, 2 drops of a commercial ophthalmic antibiotic solution (Colbiocin®, SIFI S.p.A., containing chloramphenicol, rolitetracycline, colistin methanesulphonate) were instilled. The treatment was carried out 3 times a day (at 8.00 a.m., 12.00 a.m. and 6.00 p.m.) for one week after the administration of α-chymotrypsin. The rabbits were employed in the tests after one month from the induction of ocular hypertension by means of the enzyme.
The rabbits, divided also in this case in groups of 4 animals, were treated by instillation of 50 μl of the product under test in the right conjunctival fornix.
The intraocular pressure in the treated eye was measured, according to the same procedure as in the previous tests, 15 minutes before the instillation of the eye-drops and 30, 60, 90, 120, 180 and 240 minutes after. The values obtained were statistically analysed according to the criteria mentioned in the foregoing.
The experimental conditions were exactly the same as before.

[5] = average ± S.D. of 4 rabbits, 30 min after instillation
[6] = average ± S.D. of 4 rabbits, 60 min after instillation
[7] = average ± S.D. of 4 rabbits, 90 min after instillation
[8] = average ± S.D. of 4 rabbits, 120 min after instillation
[9] = average ± S.D. of 4 rabbits, 180 min after instillation
[10] = average ± S.D. of 4 rabbits, 240 min after instillation
[11] = average ± S.D. of 4 rabbits, time 0 = 15 min before instillation (baseline)
[12] = individual rabbit, right eye, 30 min after instillation
[13] = individual rabbit, right eye, 60 min after instillation
[14] = individual rabbit, right eye, 90 min after instillation
[15] = individual rabbit, right eye, 120 min after instillation
[16] = individual rabbit, right eye, 180 min after instillation
[17] = individual rabbit, right eye, 240 min after instillation
[18] = individual rabbit, right eye, time 0 = 15 min before instillation (baseline)

T1 sequence (G1SD54 1-223): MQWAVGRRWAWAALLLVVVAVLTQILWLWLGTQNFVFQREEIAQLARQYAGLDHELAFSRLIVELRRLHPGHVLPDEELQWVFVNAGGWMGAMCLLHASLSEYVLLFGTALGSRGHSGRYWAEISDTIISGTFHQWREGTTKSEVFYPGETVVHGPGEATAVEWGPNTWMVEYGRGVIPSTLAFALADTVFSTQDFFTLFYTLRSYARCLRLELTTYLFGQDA

For CC(C)=CCN1CC[C@]2(C)c3cc(O)ccc3C[C@H]1[C@H]2C [[^3H])(+)-pentazocine, [^3H](+)-pentazocine], the “Binding to receptor sites of the iridociliary body region” value [1] was “selectively binds to receptor sites”.
COCCOC(=O)C1=C(C)NC(C)=C(C(=O)OC(C)C)C1c1cccc([N+](=O)[O-])c1 (stereo not drawn) [nimodipine] showed an IC50 [2] of over 10 µM.
CC(C)(C)NC[C@H](O)COc1nsnc1N1CCOCC1 [timolol] was tested, and the “Intraocular pressure (mmHg) at the time (min): 30, average ± S.D.” value [3, 5] was 14.7 ± 0.5 mmHg, the “Intraocular pressure (mmHg) at the time (min): 60, average ± S.D.” value [3, 6] was 13.5 ± 0.6 mmHg and the “Intraocular pressure (mmHg) at the time (min): 90, average ± S.D.” value [3, 7] was 14.5 ± 0.6 mmHg. For the same compound, the “Intraocular pressure (mmHg) at the time (min): 120, average ± S.D.” value [3, 8] was 15.5 ± 0.6 mmHg, the “Intraocular pressure (mmHg) at the time (min): 180, average ± S.D.” value [3, 9] was 16.0 ± 0.6 mmHg and the “Intraocular pressure (mmHg) at the time (min): 240, average ± S.D.” value [3, 10] was 16.0 ± 0.8 mmHg. The “Intraocular pressure (mmHg) at the time (min): 0, average ± S.D.” value [3, 11] was 15.7 ± 0.5 mmHg, the “Intraocular pressure (mmHg) at the time (min): 30” value [3, 12] was 15 mmHg (3×) and 14 mmHg and the “Intraocular pressure (mmHg) at the time (min): 60” value [3, 13] was 14 mmHg (2×) and 13 mmHg (2×). For the same compound, the “Intraocular pressure (mmHg) at the time (min): 90” value [3, 14] was 14 mmHg (2×) and 15 mmHg (2×), the “Intraocular pressure (mmHg) at the time (min): 120” value [3, 15] was 15 mmHg (2×) and 16 mmHg (2×) and the “Intraocular pressure (mmHg) at the time (min): 180” value [3, 16] was 16 mmHg (2×) and 17 mmHg and 15 mmHg. For the same compound, the “Intraocular pressure (mmHg) at the time (min): 240” value [3, 17] was 16 mmHg (2×) and 17 mmHg and 15 mmHg, the “Intraocular pressure (mmHg) at the time (min): 0” value [3, 18] was 16 mmHg (3×) and 15 mmHg and the “Intraocular pressure (mmHg) at the time (min): 30, average ± S.D.” value [4, 5] was 41.7 ± 4.7 mmHg. The “Intraocular pressure (mmHg) at the time (min): 60, average ± S.D.” value [4, 6] was 39.7 ± 2.9 mmHg, the “Intraocular pressure (mmHg) at the time (min): 90, average ± S.D.” value [4, 7] was 39.7 ± 2.6 mmHg and the “Intraocular pressure (mmHg) at the time (min): 120, average ± S.D.” value [4, 8] was 42.5 ± 3.5 mmHg. For the same compound, the “Intraocular pressure (mmHg) at the time (min): 180, average ± S.D.” value [4, 9] was 46.0 ± 4.9 mmHg, the “Intraocular pressure (mmHg) at the time (min): 240, average ± S.D.” value [4, 10] was 48.2 ± 4.4 mmHg and the “Intraocular pressure (mmHg) at the time (min): 0, average ± S.D.” value [4, 11] was 49.0 ± 5.3 mmHg. For the same compound, the “Intraocular pressure (mmHg) at the time (min): 30” value [4, 12] was 43 mmHg and 45 mmHg and 39 mmHg and 40 mmHg, the “Intraocular pressure (mmHg) at the time (min): 60” value [4, 13] was 42 mmHg (2×) and 39 mmHg and 36 mmHg and the “Intraocular pressure (mmHg) at the time (min): 90” value [4, 14] was 42 mmHg (2×) and 38 mmHg and 37 mmHg. The “Intraocular pressure (mmHg) at the time (min): 120” value [4, 15] was 46 mmHg and 45 mmHg and 39 mmHg and 40 mmHg, the “Intraocular pressure (mmHg) at the time (min): 180” value [4, 16] was 52 mmHg and 48 mmHg and 42 mmHg (2×) and the “Intraocular pressure (mmHg) at the time (min): 240” value [4, 17] was 53 mmHg and 51 mmHg and 45 mmHg and 44 mmHg. For the same compound, the “Intraocular pressure (mmHg) at the time (min): 0” value [4, 18] was 53 mmHg and 54 mmHg and 46 mmHg and 43 mmHg.
